# Results published in patent US20250367191A1, “TREATMENT OF MITOCHONDRIAL DISEASES WITH A CNS-PENETRANT SGC STIMULATOR ZAGOCIGUAT” (Tisento Therapeutics Inc., priority 2022, published 2025).
# Columns and labels:
# [1] = tested on: participants diagnosed with MELAS; assay: MELAS study: inflammatory biomarkers in plasma (InflammationMAP panel); format: in vivo, human
# Protocol: (§1) Plasma and serum samples for biomarkers were collected from each participant. These biomarkers tested the target engagement of Compound I as well as the impact of the compound on disease. Plasma or serum samples were analyzed for concentrations of growth differentiation factor 15 (GDF-15), lactate, pyruvate, alanine, neurofilament light chain (NFL), vascular cell adhesion molecule 1, interleukin-1beta, asymmetric dimethylarginine (ADMA), L arginine, and other biomarkers relevant to the pathophysiology of mitochondrial disease, as well as their response to Compound I.
# (§2) This change was observed across all brain regions of interest. Effect size throughout this disclosure is defined as the means change from baseline in a particular parameter that is being measured, divided by the standard deviation. Effect sizes closer to 1 or −1 (positive or negative dependent on the direction of movement for the specific parameter, i.e. +0.8 to +1.0 or −0.8 to −1.0) are usually considered large. Effect sizes between 0.5 and 0.8 or −0.5 and −0.8 (positive or negative dependent on the direction of movement for the specific parameter) are usually considered moderate. Effect sizes closer to below 0.5 or −0.5 (positive or negative dependent on the direction of movement for the specific parameter) are usually considered small.
# 26 out of the 40 (65%) inflammatory biomarkers assessed in plasma as part of the InflammationMAP® panel were reduced with effect sizes less or equal than −0.3. Only 3 of the 40 (7.5%) inflammatory biomarkers assessed in plasma increased with an effect size equal or more than 0.3. The changes in concentrations as well as the effect sizes for inflammatory markers measured in plasma are summarized in the 3 tables below (Table 1: large effect size; Table 2: moderate effect size and Table 3: small effect size). The concentration values in Tables 1-3 were measured in the standard units for each of these laboratory measures as known in the art. Many of these biomarkers tended to increase again back to baseline levels after treatment with Compound I was stopped, supporting a drug effect.
# [2] = tested on: participants diagnosed with MELAS; assay: MELAS study: plasma biomarkers of mitochondrial dysfunction (lactate, GDF-15, FGF-21); format: in vivo, human
# Protocol: as §1, §2
# healthy participants = assay: Phase I trial NCT03856827, healthy participants aged 18 to 62: EEG; format: in vivo, human
# Protocol: Electroencephalography (EEG) is a technique that measures electrical activity in the brain (brain electrophysiology) by using electrodes places on the scalp. EEG-power spectral signals may be analyzed at different frequencies or frequency bands. They were analyzed at the following frequency bands in two prior phase 1 clinical trials with Compound I described below: Delta-1-4 Hz (typically associated with sleep), Theta-4-7.5 Hz (associated with waking/falling asleep, some association with cognition), Alpha-8-12 Hz (associated with passive wakefulness, and with cognitive processing), Beta-12-25 Hz (associated with alertness and concentration) and Gamma-25-45 Hz (associated with higher cognitive function). qEEG stands for quantitative electroencephalography. […]
# During EEG-ERP experiments, several key waveforms may be evaluated following a stimulus: N200 (associated with stimulus identification and distinction), P300 (associated with selective attention, information processing and cognitive speed/capacity), P200 (associated with aspects of selective attention or stimulus encoding), P50 (assciated with sensory gating, or the reduced neurophysiological response to redundant stimuli), and N100 (associated with early perceptal processes). […]
# rodent = details: single dose; cited from earlier work
# rats = details: cited from earlier work
# healthy elderly subjects = details: cited from earlier work
# [3] = plasma, trend towards reduction
# [4] = two weeks, 15 mg QD, compared with placebo
smiles,measurement,setting,value
"Fc1ccccc1Cc1nc(-c2nc(C(F)(F)F)n[nH]2)cn2ccnc12 [Compound I, zagociguat]","Alpha-1-Antitrypsin, Effect size","[1]; 15 mg QD, day 29 vs baseline",−0.4
same,"Alpha-1-Antitrypsin, change in concentration, Mean","[1]; 15 mg QD, day 29 vs baseline",−0.2
same,"Alpha-2-Macroglobulin, Effect size","[1]; 15 mg QD, day 29 vs baseline",−0.3
same,"Alpha-2-Macroglobulin, change in concentration, Mean","[1]; 15 mg QD, day 29 vs baseline",−0.2
same,"Beta-2-Microglobulin, Effect size","[1]; 15 mg QD, day 29 vs baseline",−1.0
same,"Beta-2-Microglobulin, change in concentration, Mean","[1]; 15 mg QD, day 29 vs baseline",−0.5
same,"Brain-Derived Neurotrophic Factor, Effect size","[1]; 15 mg QD, day 29 vs baseline",−0.5
same,"Brain-Derived Neurotrophic Factor, change in concentration, Mean","[1]; 15 mg QD, day 29 vs baseline",−2.1
same,"C-Reactive Protein, Effect size","[1]; 15 mg QD, day 29 vs baseline",−0.6
same,"C-Reactive Protein, change in concentration, Mean","[1]; 15 mg QD, day 29 vs baseline",−3.4
same,"EN-RAGE, Effect size","[1]; 15 mg QD, day 29 vs baseline",−0.4
same,"EN-RAGE, change in concentration, Mean","[1]; 15 mg QD, day 29 vs baseline",−28.4
same,"Eotaxin-1, Effect size","[1]; 15 mg QD, day 29 vs baseline",−0.4
same,"Eotaxin-1, change in concentration, Mean","[1]; 15 mg QD, day 29 vs baseline",−10.1
same,"Factor VII, Effect size","[1]; 15 mg QD, day 29 vs baseline",−0.4
same,"Factor VII, change in concentration, Mean","[1]; 15 mg QD, day 29 vs baseline",−87.4
same,"Ferritin, Effect size","[1]; 15 mg QD, day 29 vs baseline",−0.6
same,"Ferritin, change in concentration, Mean","[1]; 15 mg QD, day 29 vs baseline",−21.4
same,"Fibrinogen, Effect size","[1]; 15 mg QD, day 29 vs baseline",−0.4
same,"Fibrinogen, change in concentration, Mean","[1]; 15 mg QD, day 29 vs baseline",−1.4
same,"Granulocyte-Macrophage Colony-Stimulating Factor, Effect size","[1]; 15 mg QD, day 29 vs baseline",−0.4
same,"Granulocyte-Macrophage Colony-Stimulating Factor, change in concentration, Mean","[1]; 15 mg QD, day 29 vs baseline",−13.6
same,"Immunoglobulin A, Effect size","[1]; 15 mg QD, day 29 vs baseline",−0.5
same,"Immunoglobulin A, change in concentration, Mean","[1]; 15 mg QD, day 29 vs baseline",−0.4
same,"Immunoglobulin M, Effect size","[1]; 15 mg QD, day 29 vs baseline",−0.6
same,"Immunoglobulin M, change in concentration, Mean","[1]; 15 mg QD, day 29 vs baseline",−0.4
same,"Intercellular Adhesion Molecule 1, Effect size","[1]; 15 mg QD, day 29 vs baseline",−0.3
same,"Intercellular Adhesion Molecule 1, change in concentration, Mean","[1]; 15 mg QD, day 29 vs baseline",−12.1
same,"Interleukin-10 (IL-10), Effect size","[1]; 15 mg QD, day 29 vs baseline",0.4
same,"Interleukin-10 (IL-10), change in concentration, Mean","[1]; 15 mg QD, day 29 vs baseline",0.3
same,"Interleukin-17 (IL-17), Effect size","[1]; 15 mg QD, day 29 vs baseline",0.5
same,"Interleukin-17 (IL-17), change in concentration, Mean","[1]; 15 mg QD, day 29 vs baseline",0.03
same,"Interleukin-18, Effect size","[1]; 15 mg QD, day 29 vs baseline",−0.4
same,"Interleukin-18, change in concentration, Mean","[1]; 15 mg QD, day 29 vs baseline",−25.6
same,"Matrix Metalloproteinase-9 (MMP-9), Effect size","[1]; 15 mg QD, day 29 vs baseline",0.4
same,"Matrix Metalloproteinase-9 (MMP-9), change in concentration, Mean","[1]; 15 mg QD, day 29 vs baseline",37.3
same,"Myoglobin, Effect size","[1]; 15 mg QD, day 29 vs baseline",−0.4
same,"Myoglobin, change in concentration, Mean","[1]; 15 mg QD, day 29 vs baseline",−32.5
same,"Plasminogen Activator Inhibitor 1, Effect size","[1]; 15 mg QD, day 29 vs baseline",−0.4
same,"Plasminogen Activator Inhibitor 1, change in concentration, Mean","[1]; 15 mg QD, day 29 vs baseline",−11.6
same,"Pulmonary and Activation-Regulated Chemokine, Effect size","[1]; 15 mg QD, day 29 vs baseline",−0.5
same,"Pulmonary and Activation-Regulated Chemokine, change in concentration, Mean","[1]; 15 mg QD, day 29 vs baseline",−15.3
same,"Serum Amyloid P-Component, Effect size","[1]; 15 mg QD, day 29 vs baseline",−0.9
same,"Serum Amyloid P-Component, change in concentration, Mean","[1]; 15 mg QD, day 29 vs baseline",−5.0
same,"T-Cell-Specific Protein RANTES, Effect size","[1]; 15 mg QD, day 29 vs baseline",−0.5
same,"T-Cell-Specific Protein RANTES, change in concentration, Mean","[1]; 15 mg QD, day 29 vs baseline",−7.2
same,"Thyroxine-Binding Globulin, Effect size","[1]; 15 mg QD, day 29 vs baseline",−0.7
same,"Thyroxine-Binding Globulin, change in concentration, Mean","[1]; 15 mg QD, day 29 vs baseline",−8.4
same,"Tumor necrosis factor receptor 2, Effect size","[1]; 15 mg QD, day 29 vs baseline",−0.7
same,"Tumor necrosis factor receptor 2, change in concentration, Mean","[1]; 15 mg QD, day 29 vs baseline",−1.8
same,"Vascular Cell Adhesion Molecule-1, Effect size","[1]; 15 mg QD, day 29 vs baseline",−0.6
same,"Vascular Cell Adhesion Molecule-1, change in concentration, Mean","[1]; 15 mg QD, day 29 vs baseline",−98.3
same,"Vascular Endothelial Growth Factor, Effect size","[1]; 15 mg QD, day 29 vs baseline",−0.3
same,"Vascular Endothelial Growth Factor, change in concentration, Mean","[1]; 15 mg QD, day 29 vs baseline",−7.0
same,"Vitamin D-Binding Protein, Effect size","[1]; 15 mg QD, day 29 vs baseline",−0.5
same,"Vitamin D-Binding Protein, change in concentration, Mean","[1]; 15 mg QD, day 29 vs baseline",−26.5
same,"von Willebrand Factor, Effect size","[1]; 15 mg QD, day 29 vs baseline",−0.4
same,"von Willebrand Factor, change in concentration, Mean","[1]; 15 mg QD, day 29 vs baseline",−123.4
same,inflammatory biomarkers increased with an effect size equal or more than 0.3 (3 of the 40),[1]; 40 biomarkers assessed,7.5%
same,inflammatory biomarkers reduced with effect sizes less or equal than −0.3 (26 out of the 40),[1]; 40 biomarkers assessed,65%
same,participants with reductions in GDF-15,[2]; in vivo,4 of 8
same,participants with reductions in lactate,[2]; in vivo,6 of 8
same,"reductions in GDF-15, greatest",[2]; participants with higher baseline concentrations,up to 39%
same,"FGF-21, effect size",[2]; [3],−0.2
same,"GDF-15, effect size",[2]; [3],−0.5
same,"Lactate concentrations, effect size",[2]; [3],−0.5
same,ERP P300 amplitude,"healthy participants; QD dosing, healthy participants aged 18 to 62",increase in amplitude with increasing dose level
same,alpha power,"healthy participants; day 14, all dosage levels tested, compared to placebo",Improvements in alpha power
same,fMRI-BOLD signals,rodent,increased fMRI-BOLD signals
same,levels of cGMP in the CNS,rodent,increased levels of cGMP in the CNS
same,qEEG gamma-band oscillatory power,rodent,elevated qEEG gamma-band oscillatory power
same,brain metabolite NAA+NAAG deficits,rats; chronic dosing,reversed
same,dendritic spine density,rats; chronic dosing,improved dendritic spine density
same,hippocampal long term potentiation (LTP),rats; chronic dosing,restored
same,behavioral task performance,rats; pharmacologically impaired rats,improved behavioral task performance
same,neurotrophic factors pCREB and BDNF,"rats; rat, in vivo",increased neurotrophic factors
same,N200 auditory event-related potential (ERP) latencies,"healthy elderly subjects; healthy elderly, 15 mg QD",shortening
same,gamma power (EEG),"healthy elderly subjects; healthy elderly, 15 mg QD",trend increases in gamma power
same,posterior alpha power (EEG),"healthy elderly subjects; healthy elderly, 15 mg QD",increases in posterior alpha power
same,"neuroimaging by ASL and fMRI BOLD, MRS measurements, NeuroCart CNS function assessments",healthy elderly subjects; healthy elderly,No changes were observed
same,CSF concentration of Alpha 2 macroglobulin (A2M),healthy elderly subjects; [4],potentially important reductions
same,CSF concentration of complement C3 (C3),healthy elderly subjects; [4],potentially important reductions
